Assay results: patent US9458095B2, “Oligo-benzamide compounds and their use in treating cancers” (The Board of Regents of the University of Texas System, priority 2011, dated 2016)
Entries after “also recorded” stand apart in the source; their conditions may differ.

Experiments:
Assay type in all cases: cell-based
WxxLF motif on AR = assay: Gal4-3WxxLF and AR-Gal4 (hARGAL4/PSAenhGAL4-luc) luciferase reporter assays; conditions: 100 nM peptidomimetic, 48 h, absence of androgens
Experimental: FIGS. 1A-D. Oligobenzamide control of C4-2 cell proliferation. (FIG. 1A) Chemical structure of T6. (FIG. 1B) C4-2 cells were transiently transfected with Gal4-3WxxLF promoter or (FIG. 1C) with synthetic hARGAL4 and the PSAenhGAL4-luc reporter. Cells were maintained for 48 h in the absence of androgens and with either 100 nM of peptidomimetic or volume equivalent of vehicle (DMSO) control and luciferase activity measured. (FIG. 1D) Peptidomimetics knocked down ligand independent proliferation in C4-2 cells
Ligand independent activation involves the WxxLF motif, whose tertiary structure has not been crystallographically resolved. Indeed, binding partners of AR through this WxxLF motif have not been determined. […] Based on this model, the inventors designed three peptidomimetics T6, T21 and T26 to mimic the ^435WxxLF^439 motif on AR and to target PPIs through this domain (FIG. 1A). The screening strategy involved the use of synthetic Gal4-3WxxLF (Gal4 reporter driven by 3 copies of the WxxLF motif) (FIG. 1B) and AR-Gal4 constructs (wt AR with its DNA binding domain replaced by Gal4 DNA binding domain) (from Dr. Dehm, U. Minnesota) (FIG. 1C) […]. T21, T26, or T6 (but not the control T6R) knocked down the basal ligand independent transcription from this WxxLF driven promoters. Further, these peptidomimetics abrogated ligand independent proliferation of C4-2 cells (FIG. 1D).

ARv7 [1] = biological target: T1, ARv7 (Homo sapiens, UniProt P10275); assay: Rat probasin-luciferase reporter in M12 cells with ARv7; set-up: expressed in transfected cells; host or cells: M12 cells (A9); conditions: 100 nM peptidomimetic, 48 h
T1 sequence (P10275 1-644 isoform P10275-3): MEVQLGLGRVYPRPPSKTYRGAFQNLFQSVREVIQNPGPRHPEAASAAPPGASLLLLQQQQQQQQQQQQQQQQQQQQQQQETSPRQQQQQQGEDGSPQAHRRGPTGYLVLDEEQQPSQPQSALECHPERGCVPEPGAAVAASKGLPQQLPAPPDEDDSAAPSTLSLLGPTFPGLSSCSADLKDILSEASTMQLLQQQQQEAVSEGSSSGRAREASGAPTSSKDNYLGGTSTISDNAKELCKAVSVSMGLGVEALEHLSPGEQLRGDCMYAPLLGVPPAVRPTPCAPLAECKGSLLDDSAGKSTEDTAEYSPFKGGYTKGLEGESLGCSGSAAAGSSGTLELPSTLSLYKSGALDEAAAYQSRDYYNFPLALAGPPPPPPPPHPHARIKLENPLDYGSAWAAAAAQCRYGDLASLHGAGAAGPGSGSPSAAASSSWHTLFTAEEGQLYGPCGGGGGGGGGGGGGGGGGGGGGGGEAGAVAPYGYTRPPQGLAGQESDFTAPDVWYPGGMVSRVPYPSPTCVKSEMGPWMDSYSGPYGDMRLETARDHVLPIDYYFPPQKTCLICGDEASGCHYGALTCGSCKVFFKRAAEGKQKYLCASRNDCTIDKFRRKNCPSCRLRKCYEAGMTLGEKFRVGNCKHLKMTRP
Experimental: FIG. 5. Effect of T6 on basal level of ARE expression in M12 cells. M12 cells were transiently transfected with the rat probasin-luciferase reporter and either ARwt or ARv7. Cells were maintained for 48 h without (EtOH) and in the presence of 100 nM of peptidomimetic or volume equivalent of vehicle (DMSO) control or 10 μM of MDV3100. Luciferase assay results are shown.

ARv7 [2] = biological target: T1, ARv7; assay: ARE-luciferase reporter in PC-3 cells expressing ARv7; set-up: expressed in transfected cells; host or cells: PC-3 cells (A4); M12 cells (A9); conditions: 100 nM peptidomimetic, 48 h
Experimental: FIGS. 2A-D. Oligobenzamide control of PC3 cell proliferation. (FIG. 2A) Structure of AR deletion mutants with numbered exons (FIG. 2B) Effect of D2 and T6 on basal (AI) and AD transcription. PC-3 cells were transiently transfected with ARE-luciferase along with plasmids expressing ARwt (FIG. 2B), ARv7 (FIG. 2C) or ARΔ1 (FIG. 2D). Cells were maintained for 48 h either without (EtOH) or with (1 nM DHT) and in the presence of 100 nM of peptidomimetic or volume equivalent of vehicle (DMSO) control. Luciferase assay results are shown. Data is normalized to the basal level of expression with AR wt in PC3 cells.
FIGS. 3A-B. Effect of T6 on basal transcription driven by splice variants. PC-3 cells were transiently transfected with ARE-luciferase along with plasmids expressing ARv7 (FIG. 3A) or AR567 (FIG. 3B). Cells were maintained for 48 h either without (EtOH) or with (1 nM DHT) and in the presence of 100 nM of peptidomimetic or volume equivalent of vehicle (DMSO) control. Luciferase assay results are shown. Data is normalized to the basal level of expression with AR wt in PC3 cells.
Since the WxxLF motif is also present in the truncated forms of the androgen receptor, the inventors then evaluated the ability of the peptidomimetics to block ARv7-driven transcription from a minimal ARE luciferase reporter. […]

CC(C)COc1cc(C(N)=O)ccc1NC(=O)c1ccc(NC(=O)c2ccc([N+](=O)[O-])c(OCCc3ccc4ccccc4c3)c2)c(OCC(C)C)c1 [T6]
basal ligand independent transcription from WxxLF driven promoters (WxxLF motif on AR): knocked down | expression of rat probasin reporter in M12 cells driven by ARv7 (ARv7 [1]): able to independently knock down | ARv7-mediated transcription (ARv7 [2]): able to block; also recorded: decreases
